In assay [1] the test system is angiogenesis induced by Angiotensin II in Sprague-Dawley rats. The experiment in a line: Suppression of Angiotensin II induced angiogenesis in implanted sponge (99mTc-DTPA clearance). Type of assay: in vivo. As to conditions: AII (100nmol) + test drug, 7 days after injection.
In the next assay the test system is diabetic rats. The experiment in a line: Nociceptive test (hot plate test) in diabetic rats. Type of assay: in vivo. The conditions noted are these: 50 °C hot plate. How it is done:
Effects on nociceptive responses of test compounds in rats were examined using hot plate. The same methods were applied for the induction of diabetes and treatment of test compound in rats. Rats were placed onto 50 °C hot plate, then latencies of nociceptive action such as licking were determined. The recovery (%) of nociceptive responses in diabetic rats was calculated according to the following mathematical […]. [Mathematical formula 5] Recovery(%) =(Response in treated group - Response in diabetic control)/(Response in normal control-Response in diabetic control)x100 [formula]
In general terms: Thermal pain tests record how soon the animal reacts.

In another assay the test system is Human LDL. Description: Inhibition of copper-induced LDL oxidation (MDA, TBA method). The format is biochemical. As to conditions: CuSO4 10 uM, 18 hr. The protocol:
Human LDL (sigma) was dissolved in distilled water at a concentration of 1 mg/ml. LDL was dialyzed against three changes of phosphate-buffered solution before oxidation to remove EDTA (ethylenediamine tetraacetate) at 4 °C for 18 hr. EDTA-free LDL (100 ug LDL protein/ml) was incubated in EDTA-free phosphate-buffered solution at 37 °C for 18 hr in the presence of CuSO4 (10 uM) under pretreatment with the test compounds or tochopherol of which final concentrations were 10^-9, 10^-7, and 10^-5 M. Blank was incubated without CuSO^., and vehicle was used as a solvent group. Oxidation was stopped at 4 °C by addition of EDTA (200 uM).
Copper (Cu^+2) facilitates the oxidation of LDL to produce malondialdehyde (MDA), thus the lipid peroxidation was determined by MDA quantification same as the above example 5 (1). The MDA quantification was estimated by reacting samples with 2-thiobarbituric acid (TBA) and measuring the absorbance at 530 nm. 1,1,3,3-Tetramethoxy propane (Sigma) was used as a standard agent, and calculated the quantity of MDA as nmol of MDA equivalents per mg protein. The inhibitory effect of the test compounds against the lipid peroxidation was evaluated by calculating MDA reduction rate of the test compounds compared with that of the control group.

SMILES strings stand for the structures.

As to `COC(OC)[C@@]1(C)Oc2ccc([N+](=O)[O-])cc2[C@H](NC(=NC#N)NCc2ccccc2)[C@H]1O` [Example 24, (2S, 3R, 4S)-N''-cyano-N-(6-nitro-3,4-dihydro-3-hydroxy-2-methyl-2-dimethoxymethyl-2H-benzopyran-4-yl)-N'-benzylguanidine], the “Clearance of ^99mTC (%)” value in assay [1] (Dose 0.1 mg/kg (p.o)) amounted to 26.90%; in assay [1] (Dose 0.3 mg/kg (p.o)), 18.22%; in assay [1] (Dose 1.0 mg/kg (p.o)) it was 3.38%.
One may read the % Inhibition as the percentage by which the read-out fell short of the control. The low end stands for little suppression, the high end for strong suppression. For the compound `COC(OC)[C@@]1(C)Oc2ccc(N)cc2[C@@H](NC(=NC#N)NCc2ccccc2)[C@@H]1O` [Example 40, (2S, 3S, 4R)-N''-cyano-N-(6 - amino-3,4-dihydro-3-hydroxy-2-methyl-2-dimethoxymethyl-2H-benzopyran-4-yl)-N'-benzylguanidine], the “Nociceptive response” value in the assay with diabetic rats (latency of licking) was 4.791 s. Further, the “Recovery (%)” value in the assay with diabetic rats (nociceptive responses) came to 106.5%. Further, the “% Inhibition” value in the assay with Human LDL (10^-5 M) amounted to 27.6%; with Human LDL (10^-7 M, 0.1 µM), 24.3%; in the assay with Human LDL (10^-9 M, 0.001 µM), 7.6%.

These data come from patent EP1228058B1, “BENZOPYRANYL GUANIDINE DERIVATIVES, PROCESS FOR PREPARATION THEREOF, AND PHARMACEUTICAL COMPOSITIONS CONTAINING THEM” (Dongbu Hannong Chemical Co., Ltd., priority 1999, dated 2001).
